Test results reported in patent US11220503B2, “Phthalazine derivatives, preparation method, pharmaceutical composition and usage thereof” (Shanghai SIMR Biotech Co., Ltd., priority 2015, dated 2022).

Key:
α5β3γ2 receptor = biological target: T1, α5β3γ2 receptor (Homo sapiens, UniProt P18507+P31644); experiment: Supplementary data for cell level screening: new electrophysiology method (I. Lecker et al); format: cell-based; settings: for Inverse agonism efficacy(%): new method, CsCl intracellular solution, GABA 0.1˜0.3 CM, other procedures as previous method; for inverse agonism efficacy of the compound/α5IA inverse agonism efficacy: ratio to the α5IA reference run above in the table (r4 or r29)
T1 construct: expressed in transfected cells; host or cells: HEK-293 (stably transfected)

[1] = Compound tissue distribution (brain/plasma); format: in vivo; settings: brain and plasma, po; rat, 10 mg/kg p.o. in 50% PEG400, one hour; read-out: Brain/Plasma ratio
Experimental: The distribution ratio of blood brain tissue was calculated by comparing the concentration of compound in rat plasma and brain tissue. The experimental animals were divided into two groups, the plasma group and the brain group, each with three. To measure brain to plasma ratio, rats were administed compounds in 50% PEG400 p.o. at a dose of 10 mg compound to be tested/kg. One hour later, plasma and brain samples were taken. Concentrations of compounds in brain and plasma were detected using LC-MS/MS-AJ (Triple Quad 5500) assay and analyzed using Phoenix WinNonlin.
We also measured the brain to plasma ratio of compound #24. The experimental animals were divided into two groups, the plasma group and the brain group, each with three. To measure the brain to plasma ratio, Rats were administered compounds (1 mg/kg in 5% DMSO+70% PEG400+25% H2O p.o.). One hour later, plasma and brain samples were taken. Concentrations of compounds in brain and plasma were detected using a LC-MS/MS-AJ (Triple Quad 5500) assay and analyzed using Phoenix WinNonlin.

T1 sequence (P31644 32-462): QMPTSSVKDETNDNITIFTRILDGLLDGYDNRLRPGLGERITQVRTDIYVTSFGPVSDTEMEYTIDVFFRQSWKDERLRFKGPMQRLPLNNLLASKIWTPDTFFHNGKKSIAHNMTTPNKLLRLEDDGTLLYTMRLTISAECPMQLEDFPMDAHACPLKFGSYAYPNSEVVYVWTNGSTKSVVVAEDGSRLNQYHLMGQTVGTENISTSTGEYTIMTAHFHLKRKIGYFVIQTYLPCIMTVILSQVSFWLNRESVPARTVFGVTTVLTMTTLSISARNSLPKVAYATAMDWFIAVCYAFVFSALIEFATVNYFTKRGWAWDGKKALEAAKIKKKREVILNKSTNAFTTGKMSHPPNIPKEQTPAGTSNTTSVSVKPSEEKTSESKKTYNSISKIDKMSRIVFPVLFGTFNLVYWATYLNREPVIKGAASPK
T1 sequence (P28472 26-473 isoform P28472-2 partner limits assumed): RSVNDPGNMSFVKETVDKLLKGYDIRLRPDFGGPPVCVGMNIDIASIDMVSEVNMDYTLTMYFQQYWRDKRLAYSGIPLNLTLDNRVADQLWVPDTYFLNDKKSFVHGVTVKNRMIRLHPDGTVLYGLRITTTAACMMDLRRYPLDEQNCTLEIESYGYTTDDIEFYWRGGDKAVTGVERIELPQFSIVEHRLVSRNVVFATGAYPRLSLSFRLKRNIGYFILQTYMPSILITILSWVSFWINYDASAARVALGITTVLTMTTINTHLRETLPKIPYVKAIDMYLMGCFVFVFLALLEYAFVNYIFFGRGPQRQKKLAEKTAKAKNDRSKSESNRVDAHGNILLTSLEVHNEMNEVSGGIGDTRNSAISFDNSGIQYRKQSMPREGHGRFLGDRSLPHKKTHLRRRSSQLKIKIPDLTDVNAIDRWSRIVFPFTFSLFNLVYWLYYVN
T1 sequence (P18507 40-475): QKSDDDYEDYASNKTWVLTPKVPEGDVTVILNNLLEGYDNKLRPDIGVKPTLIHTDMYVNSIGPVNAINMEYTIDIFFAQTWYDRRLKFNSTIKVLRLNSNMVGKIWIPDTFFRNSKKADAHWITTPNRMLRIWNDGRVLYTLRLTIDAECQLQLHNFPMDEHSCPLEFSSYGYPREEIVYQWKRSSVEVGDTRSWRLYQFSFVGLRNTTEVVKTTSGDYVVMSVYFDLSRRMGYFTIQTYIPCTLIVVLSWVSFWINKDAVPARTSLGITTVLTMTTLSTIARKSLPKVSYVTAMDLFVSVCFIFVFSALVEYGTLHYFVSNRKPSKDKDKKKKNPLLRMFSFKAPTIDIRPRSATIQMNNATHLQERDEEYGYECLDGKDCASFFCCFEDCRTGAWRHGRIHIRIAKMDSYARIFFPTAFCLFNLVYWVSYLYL

| Inverse agonism efficacy(%) (α5β3γ2 receptor) | inverse agonism efficacy of the compound/α5IA inverse agonism efficacy (α5β3γ2 receptor) | Kp at 1 h [1] | SMILES |
| --- | --- | --- | --- |
| −21.1667% | 1.219 | < 0.01 | CCNC(=O)c1ccc(COc2nn3c(-c4cc(C)on4)nnc3c3ccccc23)nc1 [Compound 07, N-ethyl-6-(((3-(5-methylisoxazol-3-yl)-[1,2,4]triazolo[3,4-a]phthalazin-6-yl)oxy)methyl)nicotinamide] |
| −35.375% | 1.902 | < 0.01 | COCCNC(=O)c1ccc(COc2nn3c(-c4cc(C)on4)nnc3c3ccccc23)nc1 [Compound 08, N-(2-methoxyethyl)-6-(((3-(5-methylisoxazol-3-yl)-[1,2,4]triazolo[3,4-a]phthalazin-6-yl)oxy)methyl)nicotinamide] |
